Like-named read-outs stand apart in the source and are kept apart here.
Biological target: T1, human GLP-1R (Homo sapiens, UniProt P43220)
T1 construct: host or cells: HEK293
Assay: GLP-1R cAMP assay (Example B1a, HTRF, 30 min at room temperature)
Format: cell-based
Outline: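 Competitive HTRF read-out of cAMP after 30 min room-temperature stimulation, BETP absent, of human GLP-1R-HEK293 cells (1,000/well) in HEPES buffer with 500 μM IBMX and 0.1% BSA. Activation normalised to GLP-1(7-37) positive control. EC50 from 4-parameter non-linear regression.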

[1] = cAMP accumulation in HEK293 expressing human GLP-1R, no BETP, 30 min room temperature (Method B1a, compounds ID 1-609), Table 1, read-out: EC50

T1 sequence (P43220 24-463): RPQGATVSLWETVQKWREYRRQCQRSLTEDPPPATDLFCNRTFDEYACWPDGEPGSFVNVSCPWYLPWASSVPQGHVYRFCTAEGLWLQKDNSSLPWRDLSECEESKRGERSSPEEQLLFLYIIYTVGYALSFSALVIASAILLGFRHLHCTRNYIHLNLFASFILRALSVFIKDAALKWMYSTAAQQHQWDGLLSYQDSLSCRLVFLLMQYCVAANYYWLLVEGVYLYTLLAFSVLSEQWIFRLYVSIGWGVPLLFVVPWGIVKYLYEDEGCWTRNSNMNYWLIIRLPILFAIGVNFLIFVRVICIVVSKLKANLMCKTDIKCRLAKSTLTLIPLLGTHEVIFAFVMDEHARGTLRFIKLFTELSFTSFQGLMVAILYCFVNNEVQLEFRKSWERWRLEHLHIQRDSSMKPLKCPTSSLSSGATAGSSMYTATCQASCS

CCc1nccc(-c2ccc3c(c2)cc(C(=O)N2[C@@H]4CC[C@H]2c2c(nn(-c5cc(C)c(F)c(C)c5)c2-n2ccn(-c5ccc6c(cnn6C)c5F)c2=O)C4)n3[C@@]2(c3noc(=O)[nH]3)C[C@@H]2C)c1C [Compound 219, 3-[(1S,2S)-1-[5-(2-ethyl-3-methyl-4-pyridyl)-2-[(1S,8R)-4-(4-fluoro-3,5-dimethyl-phenyl)-3-[3-(4-fluoro-1-methyl-indazol-5-yl)-2-oxo-imidazol-1-yl]-4,5,11-triazatricyclo[6.2.1.02,6]undeca-2,5-diene-11-carbonyl]indol-1-yl]-2-methyl-cyclopropyl]-4H-1,2,4-oxadiazol-5-one]
EC50 [1]: 269 nM

Cc1cc(-n2nc3c(c2-n2ccn(-c4ccc5c(cnn5C)c4F)c2=O)[C@@H]2CC[C@H](C3)N2C(=O)c2cc3cc([C@H]4COC(C)(C)C4)ccc3n2[C@@]2(c3noc(=O)[nH]3)C[C@@H]2C)cc(C)c1F [Compound 423, 3-[(1S,2S)-1-[5-[(3S)-5,5-dimethyltetrahydrofuran-3-yl]-2-[(1S,8R)-4-(4-fluoro-3,5-dimethyl-phenyl)-3-[3-(4-fluoro-1-methyl-indazol-5-yl)-2-oxo-imidazol-1-yl]-4,5,11-triazatricyclo[6.2.1.02,6]undeca-2,5-diene-11-carbonyl]indol-1-yl]-2-methyl-cyclopropyl]-4H-1,2,4-oxadiazol-5-one]
EC50 [1]: 2120 nM

CCP(=O)(CC)c1ccc(-n2ccn(-c3c4c(nn3-c3cc(C)c(F)c(C)c3)CCCN(C(=O)c3cc5cc(C6CCOCC6)ccc5n3[C@@]3(c5noc(=O)[nH]5)C[C@@H]3C)C4)c2=O)cc1NC [Compound 506, 3-[(1S,2S)-1-[2-[3-[3-[4-diethylphosphoryl-3-(methylamino)phenyl]-2-oxo-imidazol-1-yl]-2-(4-fluoro-3,5-dimethyl-phenyl)-4,6,7,8-tetrahydropyrazolo[4,3-c]azepine-5-carbonyl]-5-tetrahydropyran-4-yl-indol-1-yl]-2-methyl-cyclopropyl]-4H-1,2,4-oxadiazol-5-one]
EC50 [1]: 757 nM

Cc1cc(-n2nc3c(c2-n2ccn(-c4ccc5ccncc5c4F)c2=O)[C@@H]2CCC[C@H](C3)N2S(=O)(=O)c2cc3cc([C@H]4CCOC(C)(C)C4)ccc3n2[C@@]2(c3noc(=O)[nH]3)C[C@@H]2C)cc(C)c1F [Compound 602, 3-[(1S,2S)-1-[5-[(4S)-2,2-dimethyltetrahydropyran-4-yl]-2-[[(1S,8R)-4-(4-fluoro-3,5-dimethyl-phenyl)-3-[3-(8-fluoro-7-isoquinolyl)-2-oxo-imidazol-1-yl]-4,5,12-triazatricyclo[6.3.1.02,6]dodeca-2,5-dien-12-yl]sulfonyl]indol-1-yl]-2-methyl-cyclopropyl]-4H-1,2,4-oxadiazol-5-one]
EC50 [1]: 1100 nM

Cc1cc(-n2nc3c(c2-n2ccn(-c4ccc5c(cnn5C)c4F)c2=O)[C@H]2CC[C@@H](C3)N2C(=O)c2cc3cc([C@H]4CCOC(C)(C)C4)ccc3n2[C@@]2(c3noc(=O)[nH]3)C[C@@H]2C)cc(C)c1F [Compound 35, 3-((1S,2S)-1-(5-((S)-2,2-dimethyltetrahydro-2H-pyran-4-yl)-2-((4R,7S)-3-(3-(4-fluoro-1-methyl-1H-indazol-5-yl)-2-oxo-2,3-dihydro-1H-imidazol-1-yl)-2-(4-fluoro-3,5-dimethylphenyl)-2,4,5,6,7,8-hexahydro-4,7-epiminocyclohepta [c]pyrazole-9-carbonyl)-1H-indol-1-yl)-2-methylcyclopropyl)-1,2,4-oxadiazol-5 (4H)-one]
EC50 [1]: ≥ 100000 nM | potency (text to Table 1d, bridge atoms configured out of the plane or toward the reader): little or no potency

Cc1cc(-n2nc3c(c2-n2ccn(-c4ccc5c(cnn5C)c4F)c2=O)[C@@H]2CC[C@H](C3)N2C(=O)c2nc3cc(C4CCOC(C)(C)C4)ccc3n2C2(c3noc(=O)[nH]3)CC2)cc(C)c1F (stereo partly drawn) [Compound 130, 3-[1-[5-(2,2-dimethyltetrahydropyran-4-yl)-2-[(1S,8R)-4-(4-fluoro-3,5-dimethyl-phenyl)-3-[3-(4-fluoro-1-methyl-indazol-5-yl)-2-oxo-imidazol-1-yl]-4,5,11-triazatricyclo[6.2.1.02,6]undeca-2,5-diene-11-carbonyl]benzimidazol-1-yl]cyclopropyl]-4H-1,2,4-oxadiazol-5-one]
EC50 [1]: > 10000 nM

Cc1cc(-n2nc3c(c2-n2ccn(-c4ccc5cnncc5c4F)c2=O)[C@@H]2CC[C@H](C3)N2C(=O)c2cc3cc([C@H]4CCOC5(CC5)C4)ccc3n2[C@@]2(c3noc(=O)[nH]3)C[C@@H]2C)cc(C)c1F [Compound 437, 3-((1S,2S)-1-(2-((4S,7R)-2-(4-fluoro-3,5-dimethylphenyl)-3-(3-(5-fluorophthalazin-6-yl)-2-oxo-2,3-dihydro-1H-imidazol-1-yl)-2,4,5,6,7,8-hexahydro-4,7-epiminocyclohepta [c]pyrazole-9-carbonyl)-5-((S)-4-oxaspiro[2.5]octan-7-yl)-1H-indol-1-yl)-2-methylcyclopropyl)-1,2,4-oxadiazol-5 (4H)-one]
EC50 [1]: 55 nM

Cc1cc(-n2nc3c(c2-n2ccn(-c4ccc5c(cnn5C)c4F)c2=O)[C@@H]2CC[C@H](C3)N2C(=O)c2c(C)c3cc([C@H]4CCOC(C)(C)C4)ccc3n2[C@@]2(c3noc(=O)[nH]3)C[C@@H]2C)cc(C)c1F [Compound 532, 3-[(1S,2S)-1-[5-[(4S)-2,2-dimethyltetrahydropyran-4-yl]-2-[(1S,8R)-4-(4-fluoro-3,5-dimethyl-phenyl)-3-[3-(4-fluoro-1-methyl-indazol-5-yl)-2-oxo-imidazol-1-yl]-4,5,11-triazatricyclo[6.2.1.02,6]undeca-2,5-diene-11-carbonyl]-3-methyl-indol-1-yl]-2-methyl-cyclopropyl]-4H-1,2,4-oxadiazol-5-one]
EC50 [1]: 672 nM

Cc1cc(-n2nc3c(c2-n2ccn(-c4ccc5c(cnn5C)c4F)c2=O)[C@@H]2CC[C@H](C3)N2C(=O)c2cc3nc(C4CCOC(C)(C)C4)sc3cc2C2(c3noc(=O)[nH]3)CC2)cc(C)c1F (stereo partly drawn) [Compound 129, 3-[1-[2-(2,2-dimethyltetrahydropyran-4-yl)-5-[(1S,8R)-4-(4-fluoro-3,5-dimethyl-phenyl)-3-[3-(4-fluoro-1-methyl-indazol-5-yl)-2-oxo-imidazol-1-yl]-4,5,11-triazatricyclo[6.2.1.02,6]undeca-2,5-diene-11-carbonyl]-1,3-benzothiazol-6-yl]cyclopropyl]-4H-1,2,4-oxadiazol-5-one]
EC50 [1]: > 10000 nM

Cc1cc(-n2nc3c(c2-n2ccn(-c4ccc5c(cnn5C)c4F)c2=O)C2CCCC(C3)N2C(=O)c2cc3cc([C@H]4CCOC(C)(C)C4)ccc3n2[C@@]2(c3noc(=O)[nH]3)C[C@@H]2C)cc(C)c1F (stereo partly drawn) [Compound 427, 3-((1S,2S)-1-(5-((S)-2,2-dimethyltetrahydro-2H-pyran-4-yl)-2-(3-(3-(4-fluoro-1-methyl-1H-indazol-5-yl)-2-oxo-2,3-dihydro-1H-imidazol-1-yl)-2-(4-fluoro-3,5-dimethylphenyl)-4,5,6,7,8,9-hexahydro-2H-4,8-epiminocycloocta [c]pyrazole-10-carbonyl)-1H-indol-1-yl)-2-methylcyclopropyl)-1,2,4-oxadiazol-5 (4H)-one]
EC50 [1]: 77.1 nM

Cc1cc(-n2nc3c(c2-n2ccn(-c4ccc5c(cnn5C)c4F)c2=O)[C@@H]2CCC[C@H](C3)N2C(=O)c2cc3cc([C@H]4CCOC(C)(C)C4)ccc3n2[C@@]2(c3noc(=O)[nH]3)C[C@@H]2C)cc(C)c1F [Compound 433, 3-((1S,2S)-1-(5-((S)-2,2-dimethyltetrahydro-2H-pyran-4-yl)-2-((4S,8R)-3-(3-(4-fluoro-1-methyl-1H-indazol-5-yl)-2-oxo-2,3-dihydro-1H-imidazol-1-yl)-2-(4-fluoro-3,5-dimethylphenyl)-4,5,6,7,8,9-hexahydro-2H-4,8-epiminocycloocta [c]pyrazole-10-carbonyl)-1H-indol-1-yl)-2-methylcyclopropyl)-1,2,4-oxadiazol-5 (4H)-one]
EC50 Ratio (Table 1d, potency ratio of stereoisomer pair (less potent / more potent isomer)): >333 | EC50 (Table 1d, stereoisomer pairs, read-out: EC50): 30 nM | EC50 [1]: 30 nM | EC50 (text to Table 1d, bridge atoms configured into the plane or away from the reader, read-out: potency (EC50)): < 1000 nM

Cc1cc(-n2nc3c(c2-n2ccn(-c4ccc5c(cnn5C)c4F)c2=O)[C@@H]2CC[C@H](C3)N2C(=O)c2cc3cc([C@H]4CCOC(C)(C)C4)ccc3n2[C@@]2(C(=O)NS(C)(=O)=O)C[C@@H]2C)cc(C)c1F [Compound 201, cis-(1S,2S)-1-[5-[(4S)-2,2-dimethyltetrahydropyran-4-yl]-2-[(1S,8R)-4-(4-fluoro-3,5-dimethyl-phenyl)-3-[3-(4-fluoro-1-methyl-indazol-5-yl)-2-oxo-imidazol-1-yl]-4,5,11-triazatricyclo[6.2.1.02,6]undeca-2,5-diene-11-carbonyl]indol-1-yl]-2-methyl-N-methylsulfonyl-cyclopropanecarboxamide]
EC50 [1]: > 10000 nM

Cc1cc(-n2nc3c(c2-n2ccn(-c4ccc5c(cnn5C(F)F)c4F)c2=O)[C@@H]2CC[C@H](C3)N2C(=O)c2cc3cc([C@H]4CCOC(C)(C)C4)ccc3n2[C@@]2(c3noc(=O)[nH]3)C[C@@H]2C)cc(C)c1F [Compound 310, 3-((1S,2S)-1-(2-((4S,7R)-3-(3-(1-(difluoromethyl)-4-fluoro-1H-indazol-5-yl)-2-oxo-2,3-dihydro-1H-imidazol-1-yl)-2-(4-fluoro-3,5-dimethylphenyl)-2,4,5,6,7,8-hexahydro-4,7-epiminocyclohepta [c]pyrazole-9-carbonyl)-5-((S)-2,2-dimethyltetrahydro-2H-pyran-4-yl)-1H-indol-1-yl)-2-methylcyclopropyl)-1,2,4-oxadiazol-5(4H)-one]
EC50 [1]: 182 nM
